The values that follow come from patent US8207156B2, “Substituted pyrazoline compounds, their preparation and use as medicaments” (Laboratorios Del Dr. Esteve, S.A., priority 2005, dated 2012).

Assay [1] deals with recombinant human cannabinoid 1 receptor (CB1) (Homo sapiens, UniProt P21554). Briefly: In vitro determination of antagonism to CB1-receptor ([35S]GTPγS binding assay, CHO cell membranes). Format: biochemical. The following applies: compound at 1 μM against agonist WIN 55,212-2 (3 nM to 3 μM); effect of Rimonabant (1 μM) defined as 100%. On the procedure: Chinese hamster ovary (CHO) cells stably expressing recombinant human cannabinoid 1 receptor (CB1) were cultured in nutrient mixture Ham's F 12 supplemented with 10% heat-inactivated fetal bovine serum, 2 mM L-glutamine, 50 U/ml penicillin, 50 U/ml streptomycin and 0.5 mg/ml geneticin. In order to obtain cells, culture flasks were washed twice with phosphate buffered saline and scraped. Then, cells were collected by centrifugation (200×g, 10 min) and stored dry at −80° C. Cells were homogenized in ice-cold 20 mM HEPES, 10 mM EDTA (pH 7.5) and centrifuged at 40,000×g for 15 min at 4° C. The membrane pellet was resuspended in 20 mM HEPES, 0.1 mM EDTA (pH 7.5) and centrifuged for 15 min at 4° C. The final membrane pellet was resuspended in 20 mM HEPES, 0.1 mM EDTA (pH 7.5), and divided in aliquots and stored at −80° C. until use.
The reaction was performed in 96-well plates. Membranes (15 μg protein/well) were incubated for 60 min at 30° C. in buffer (50 mM HEPES, 100 mM KCl, 5 mM MgCl2,1 mM EDTA, 0.1% wt/vol bovine serum albumin, 5 μM GDP, saponin (10 μg/ml), 0.5 nM [^35S]GTPγS, pH 7.4) with compound at a final concentration of 1 μM in either the absence or presence of agonist WIN 55, 212-2 between 3 nM and 3 μM. The incubation was terminated by rapid filtration through Millipore Multiscreen glass fiber FB, and rinsed two-times with ice-cold assay buffer. Filter plates were dried and 30 μl of scintillation liquid was added. Radioactivity was determined using a Wallac Microbeta Trilux. Each experiment was performed at least in duplicate. A WIN 55, 212-2 dose-response experiment either alone or in the presence of Rimonabant (1 μM) was systematically performed.
The average of basal [^35S]GTPγS binding was subtracted from all binding data. In order to compare the antagonism results from one screening campaign to another one, the difference between the maximal agonist effect of WIN 55, 212-2 alone, and the maximal antagonism effect due to WIN 55, 212-2 plus Rimonabant (1 μM) was defined as 100%.

For another assay, the target named is T1, CB1 receptor (UniProt P20272).
T1 construct: other: compound at 10^−7 M; radioligand [3H]-CP55940; other: compound at 10^−8 M
Put plainly: In-vitro determination of affinity to CB1/CB2-receptors (radioligand [3H]-CP55940 binding). The following applies: for Inhibition [%], 10^−7 M: compound at 10^−7 M; for Inhibition [%], 10^−8 M: compound at 10^−8 M. On the procedure:
The in-vitro determination of the affinity of the inventive substituted pyrazoline compounds to CB1/CB2-Rezeptors is carried out as described in the publication of Ruth A. Ross, Heather C. Brockie et al., “Agonist-inverse agonist characterization at CB1 and CB2 cannabinoid receptors of L-759633, L759656 and AM630”, British Journal of Pharmacology, 126, 665-672, (1999), whereby the transfected human CB1 and CB2 receptors of Receptor Biology, Inc. are used. The radioligand used for both receptors is [^3H]-CP55940. The respective parts of the description is hereby incorporated by reference and forms part of the present disclosure.
Binding affinity to CB1 receptor was evaluated according to a modification of the method described by Govaerts et al., Eur J Pharmac Sci 23, 233-243 (2004). The respective parts of the description is hereby incorporated by reference and forms part of the present disclosure.
Briefly, cerebellum from male wistar rats (250-300 g) were carefully dissected on ice and homogenates were prepared with Potter-Helveheim in a cold 50 mM Tris-HCl solution containing 5 mM MgCl2, 1 mM EDTA and 0.25 M sucrose, pH 7.4. The suspension was centrifuged at 1,000×g for 5 minutes. The supernatants were collected and centrifuged 50,000×g for 15 minutes. The resulting pellets were then resuspended in Tris-HCl buffer without sucrose, homogenized and incubated for 15 min at 37° C. in an orbital shaker bath and centrifuged again at 50,000×g for 15 min. Pellets were weighted, resuspended in Tris-HCl buffer without sucrose, homogenized with Ultraturrax at 13,500 rpm for 3×5 seconds and alicuoted in 0.9 ml volumes in Eppendorf tubes. Alicuotes were centrifuged at 20,800×g for 5 minutes, supernatants discarded and pellets were frozen at −80° C. until use. Total protein concentration was determined using the Bio-Rad Lowry method based kit. Competitive binding experiments were performed in presence of 1 nM [^3H]-CP 55,940 in siliconized glass tubes containing 100 μg protein/tube resuspended in 1 ml final volume of 50 mM Tris-HCl, 5 mM MgCl2, 1 mM EDTA, 0.5% (w/v) bovine serum albumin, pH 7.4. Compounds were present at various concentrations and the non specific binding was determined in the presence of 10 μM HU-210. After 1 hour incubation at 30° C., the suspension was rapidly filtered through 0.5% PEI pre-treated GF/B fiber filters on a 96-well harvester and washed 3 times with 3 ml ice-cold binding buffer without bovine serum albumin. Radioactivity on filters was measured with Wallac Winspectral 1414 counter by liquid scintillation in 6 ml Ecoscint H (National Diagnostics, U.K.). Assays were made in triplicates.
Binding data were analyzed by non-linear regression with the software GraphPad Prism Version 3.03.

Molecules are shown by their SMILES.

Chain of recombinant human cannabinoid 1 receptor (CB1) (P21554 whole entry): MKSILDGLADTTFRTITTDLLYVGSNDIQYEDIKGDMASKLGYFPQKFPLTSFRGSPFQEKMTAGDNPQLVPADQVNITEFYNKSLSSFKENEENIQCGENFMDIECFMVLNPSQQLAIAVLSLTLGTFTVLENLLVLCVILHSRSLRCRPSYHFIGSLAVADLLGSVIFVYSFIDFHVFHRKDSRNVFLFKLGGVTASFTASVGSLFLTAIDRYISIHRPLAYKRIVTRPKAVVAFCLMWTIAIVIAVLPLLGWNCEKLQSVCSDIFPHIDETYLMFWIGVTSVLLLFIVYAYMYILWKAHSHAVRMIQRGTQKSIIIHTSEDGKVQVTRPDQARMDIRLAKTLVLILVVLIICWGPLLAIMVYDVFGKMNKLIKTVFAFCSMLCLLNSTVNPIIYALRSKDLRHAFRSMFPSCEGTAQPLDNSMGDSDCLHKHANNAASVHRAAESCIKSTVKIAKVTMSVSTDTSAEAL

As for `CCOC(=O)C1=NN(c2ccc(Cl)cc2Cl)C(c2ccc(Cl)cc2)C1` (stereo not shown) [Example 120, 5-(4-Chloro-phenyl)-1-(2,4-dichloro-phenyl)-4,5-dihydro-1H-pyrazole-3-carboxylic acid ethyl ester], the “Antagonism [%]” value in assay [1] is reported as 30%. Besides, on CB1 receptor, the “Inhibition [%], 10^−7 M” value was determined as 7.1% and the “Inhibition [%], 10^−8 M” value is recorded as −4.1%.
The corresponding values for `O=C(NCC1CCCCCC1)C1=NN(c2ccc(Cl)cc2Cl)C(c2ccc(Cl)cc2)C1` (stereo not shown) [Example 191, 5-(4-Chloro-phenyl)-1-(2,4-dichloro-phenyl)-4,5-dihydro-1H-pyrazole-3-carboxylic acid cycloheptylmethyl-amide] are 82%, 67.4% and 30.2%.
The corresponding values for `O=C(NN1CCOCC1)C1=NN(c2ccc(Cl)cc2Cl)C(c2ccc(Cl)cc2)C1` (stereo not shown) [Example 8, 5-(4-Chloro-phenyl)-1-(2,4-dichloro-phenyl)-4,5-dihydro-1H-pyrazole-3-carboxylic acid morpholin-4-ylamide] are 54%, 21.9% and −8.2%.
With `O=C(NC1CCCCCCCCCCC1)C1=NN(c2ccc(Cl)cc2Cl)C(c2ccc(Cl)cc2)C1` (stereo not shown) [Example 49, 5-(4-Chloro-phenyl)-1-(2,4-dichloro-phenyl)-4,5-dihydro-1H-pyrazole-3-carboxylic acid cyclododecylamide], the “Antagonism [%]” value in assay [1] is given as 14%.
`O=C(C1=NN(c2ccc(Cl)cc2Cl)C(c2ccc(Cl)cc2)C1)N1CCC(N2CCCCC2)CC1` (stereo not shown) [Example 42, [1,4′]Bipiperidinyl-1′-yl-[5-(4-chloro-phenyl)-1-(2,4-dichloro-phenyl)-4,5-dihydro-1H-pyrazol-3-yl]-methanone]: the “Antagonism [%]” value in assay [1] is recorded as −13%.
Regarding `O=C(O)C1=NN(c2ccc(Cl)cc2Cl)C(c2ccc(F)cc2)C1` (stereo not shown) [Example 126, 1-(2,4-Dichloro-phenyl)-5-(4-fluoro-phenyl)-4,5-dihydro-1H-pyrazole-3-carboxylic acid], the “Antagonism [%]” value in assay [1] is given as 30%.
`CCOC(=O)N1CCN(C(=O)C2=NN(c3ccc(Cl)cc3Cl)C(c3ccc(Cl)cc3)C2)CC1` (stereo not shown) [Example 44, 4-[5-(4-Chloro-phenyl)-1-(2,4-dichloro-phenyl)-4,5-dihydro-1H-pyrazole-3-carbonyl]-piperazine-1-carboxylic acid ethyl ester]: the “Antagonism [%]” value in assay [1] was 39%.
On the same count and under the same terms, for `CCCCCCNC(=O)C1=NN(c2ccc(Cl)cc2Cl)C(c2ccc(Cl)cc2)C1` (stereo not shown) [Example 20, 5-(4-Chloro-phenyl)-1-(2,4-dichloro-phenyl)-4,5-dihydro-1H-pyrazole-3-carboxylic acid hexylamide] the value was 61%; for `O=C(C1=NN(c2ccc(Cl)cc2Cl)C(c2ccc(Cl)cc2)C1)N1CCc2ccccc2C1` (stereo not shown) [Example 45, [5-(4-Chloro-phenyl)-1-(2,4-dichloro-phenyl)-4,5-dihydro-1H-pyrazol-3-yl]-(3,4-dihydro-1H-isoquinolin-2-yl)-methanone], 59%; for `CC1CCCC(C)N1NC(=O)C1=NN(c2ccc(Cl)cc2Cl)C(c2ccc(Br)cc2)C1` (stereo not shown) [Example 62, 5-(4-Bromo-phenyl)-1-(2,4-dichloro-phenyl)-4,5-dihydro-1H-pyrazole-3-carboxylic acid (2,6-dimethyl-piperidin-1-yl)-amide], 67%.
Still for that read-out and setting: with `CC1CCC(NC(=O)C2=NN(c3ccc(Cl)cc3Cl)C(c3ccc(Cl)cc3)C2)CC1` (stereo not shown) [Example 17, 5-(4-Chloro-phenyl)-1-(2,4-dichloro-phenyl)-4,5-dihydro-1H-pyrazole-3-carboxylic acid (4-methyl-cyclohexyl)-amide] the figure was 65%; with `O=C(C1=NN(c2ccc(Cl)cc2Cl)C(c2ccc(Cl)cc2)C1)N1CCOCC1` (stereo not shown) [Example 54, [5-(4-Chloro-phenyl)-1-(2,4-dichloro-phenyl)-4,5-dihydro-1H-pyrazol-3-yl]-morpholin-4-yl-methanone], 46%.
Same read-out and setting: with `O=C(C1=NN(c2ccc(Cl)cc2Cl)C(c2ccc(Cl)cc2)C1)N1CCc2sccc2C1` (stereo not shown) [Example 56, [5-(4-Chloro-phenyl)-1-(2,4-dichloro-phenyl)-4,5-dihydro-1H-pyrazol-3-yl]-(6,7-dihydro-4H-thieno[3,2-c]pyridin-5-yl)-methanone] the figure was 44%; with `O=C(NN1CCCC1)C1=NN(c2ccc(Cl)cc2Cl)C(c2ccc(Br)cc2)C1` (stereo not shown) [Example 61, 5-(4-Bromo-phenyl)-1-(2,4-dichloro-phenyl)-4,5-dihydro-1H-pyrazole-3-carboxylic acid pyrrolidin-1-ylamide], 75%; with `COC(C)(C)[C@@H]1CCCN1NC(=O)C1=NN(c2ccc(Cl)cc2Cl)C(c2ccc(Cl)cc2)C1` (stereo partly shown) [Example 15, 5-(4-Chloro-phenyl)-1-(2,4-dichloro-phenyl)-4,5-dihydro-1H-pyrazole-3-carboxylic acid [2-(1-methoxy-1-methyl-ethyl)-pyrrolidin-1-yl]-amide], 6%.
Turning to `O=C(O)C1=NN(c2ccc(Cl)cc2Cl)C(c2ccc(Br)cc2)C1` (stereo not shown) [Example 128, 5-(4-Bromo-phenyl)-1-(2,4-dichloro-phenyl)-4,5-dihydro-1H-pyrazole-3-carboxylic acid], the “Antagonism [%]” value in assay [1] is 18%.
With `CCC1CCC(C)N(C(=O)C2=NN(c3ccc(Cl)cc3Cl)C(c3ccc(Cl)cc3)C2)C1` (stereo not shown) [Example 59, [5-(4-Chloro-phenyl)-1-(2,4-dichloro-phenyl)-4,5-dihydro-1H-pyrazol-3-yl]-(5-ethyl-2-methyl-piperidin-1-yl)-methanone], the “Antagonism [%]” value in assay [1] was determined as 60%.
Still for that read-out and setting: with `O=C(NN1Cc2cccc3cccc(c23)C1)C1=NN(c2ccc(Cl)cc2Cl)C(c2ccc(Cl)cc2)C1` (stereo not shown) [Example 25, 5-(4-Chloro-phenyl)-1-(2,4-dichloro-phenyl)-4,5-dihydro-1H-pyrazole-3-carboxylic acid (1H,3H-benzo[de]isoquinolin-2-yl)-amide] the figure was 7%.
The same measure, in the same setting: with `CC1(C)[C@@H]2CC[C@@]1(C)[C@@H](NC(=O)C1=NN(c3ccc(Cl)cc3Cl)C(c3ccc(Cl)cc3)C1)C2` (stereo partly shown) [Example 58, 5-(4-Chloro-phenyl)-1-(2,4-dichloro-phenyl)-4,5-dihydro-1H-pyrazole-3-carboxylic acid (1,7,7-trimethyl-bicyclo[2.2.1]hept-2-yl)-amide] the figure was 47%.
